Test results from the supplement of paper PMC10307832.

Columns and labels:
Assay in all cases: relative viability (nuclei count vs DMSO), 5 days (fraction); higher = more cells survive
KIN001-266 + Bortezomib = compound: CCN1CCC(CC1)N2C=C(N=N2)CNC3=CC4=C(C(=CN=C4C(=C3)Cl)C#N)NC5=CC(=C(C=C5)F)Cl [KIN001-266] + CC(C)C[C@H](NC(=O)[C@H](Cc1ccccc1)NC(=O)c1cnccn1)B(O)O [Bortezomib] (partner 0.002 µM)
Procedure, shortened: (§1)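 For relative viability, nuclei counts in treated wells were divided by those in vehicle wells. Lung cancer cell lines had been pin-tool dosed in 1536-well plates the day after seeding and cultured for 5 days, then fixed and stained in one step (final 0.05% Triton X-100, 1% formaldehyde, 1 ug/ml Hoechst) and imaged at 4×. Doses were one drug alone or a fixed anchor-drug dose plus five library-drug doses (not always all listed) in √10 steps, and values are duplicate-plate medians.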

KIN001-266 + Luminespib = compound: CCN1CCC(CC1)N2C=C(N=N2)CNC3=CC4=C(C(=CN=C4C(=C3)Cl)C#N)NC5=CC(=C(C=C5)F)Cl [KIN001-266] + CCNC(=O)c1noc(-c2cc(C(C)C)c(O)cc2O)c1-c1ccc(CN2CCOCC2)cc1 [Luminespib] (partner 0.01 µM)
Procedure, shortened: as §1

KIN001-266 + Dasatinib = compound: CCN1CCC(CC1)N2C=C(N=N2)CNC3=CC4=C(C(=CN=C4C(=C3)Cl)C#N)NC5=CC(=C(C=C5)F)Cl [KIN001-266] + Cc1nc(Nc2ncc(C(=O)Nc3c(C)cccc3Cl)s2)cc(N2CCN(CCO)CC2)n1 [Dasatinib] (partner 0.075 µM)
Procedure, shortened: as §1

KIN001-266 + Palbociclib = compound: CCN1CCC(CC1)N2C=C(N=N2)CNC3=CC4=C(C(=CN=C4C(=C3)Cl)C#N)NC5=CC(=C(C=C5)F)Cl [KIN001-266] + CC(=O)c1c(C)c2cnc(Nc3ccc(N4CCNCC4)cn3)nc2n(C2CCCC2)c1=O [Palbociclib] (partner 0.5 µM)
Procedure, shortened: as §1

Cell Line	relative viability (KIN001-266 + Bortezomib; first compound 0.08 µM)	relative viability (KIN001-266 + Bortezomib; first compound 0.253 µM)	relative viability (KIN001-266 + Bortezomib; first compound 0.8 µM)	relative viability (KIN001-266 + Bortezomib; first compound 2.53 µM)	relative viability (KIN001-266 + Bortezomib; first compound 8 µM)	relative viability (KIN001-266 + Luminespib; first compound 0.08 µM)	relative viability (KIN001-266 + Luminespib; first compound 0.253 µM)	relative viability (KIN001-266 + Luminespib; first compound 0.8 µM)	relative viability (KIN001-266 + Luminespib; first compound 2.53 µM)	relative viability (KIN001-266 + Luminespib; first compound 8 µM)	relative viability (KIN001-266 + Dasatinib; first compound 0.08 µM)	relative viability (KIN001-266 + Dasatinib; first compound 0.253 µM)	relative viability (KIN001-266 + Dasatinib; first compound 0.8 µM)	relative viability (KIN001-266 + Dasatinib; first compound 2.53 µM)	relative viability (KIN001-266 + Dasatinib; first compound 8 µM)	relative viability (KIN001-266 + Palbociclib; first compound 0.08 µM)	relative viability (KIN001-266 + Palbociclib; first compound 0.253 µM)	relative viability (KIN001-266 + Palbociclib; first compound 0.8 µM)	relative viability (KIN001-266 + Palbociclib; first compound 2.53 µM)	relative viability (KIN001-266 + Palbociclib; first compound 8 µM)
ABC-1	0.269	0.344	0.346	0.288	0.274	0.757	0.956	0.655	1.02	0.378	0.521	0.632	0.652	0.489	0.399	0.789	0.799	0.598	0.65	0.558
COR-L23	0.966	0.994	0.927	0.857	0.777	0.638	0.636	0.694	0.621	0.423	0.523	0.495	0.476	0.484	0.372	0.334	0.28	0.281	0.294	0.22
NCI-H661	0.784	0.755	0.878	0.837	0.566	0.887	0.946	0.968	0.915	0.559	0.897	1.01	0.847	0.894	0.657	0.424	0.413	0.403	0.372	0.349
NCI-H1993	1.04	1.29	1.06	1.01	0.858	0.872	1.02	0.705	0.736	0.533	0.767	0.621	0.521	0.553	0.568	0.68	0.653	0.66	0.688	0.58
NCI-H1437	0.534	0.435	0.514	0.493	0.447	1.08	1.13	1.1	1.09	0.854	0.413	0.421	0.346	0.369	0.249	0.34	0.33	0.296	0.325	0.278
UMC-11	0.703	0.543	0.71	0.638	0.738	0.986	0.977	1.03	0.937	0.449	0.438	0.452	0.481	0.421	0.382	0.293	0.338	0.304	0.329	0.391
201T	1.09	0.941	1.08	1.06	1.16	1.05	1.05	1	1.04	1.06	0.62	0.513	0.545	0.606	0.589	0.342	0.366	0.35	0.361	0.359
ChaGo-K-1	1.11	1.17	–	1.09	1.1	0.689	0.741	0.385	0.57	0.327	0.581	0.58	0.528	0.512	0.533	0.949	1.01	0.851	0.84	0.428
NCI-H1650	0.241	0.203	0.191	0.214	0.19	0.193	0.207	0.196	0.177	0.203	0.313	0.356	0.238	0.288	0.224	0.407	0.362	0.377	0.267	0.196
LOU-NH91	0.499	0.497	0.428	0.513	0.443	0.35	0.312	0.286	0.337	0.391	0.553	0.531	0.39	0.516	0.435	0.526	0.544	0.509	0.525	0.53
HOP-62	0.563	0.565	0.575	0.779	1.07	0.906	0.923	0.876	0.944	0.787	0.662	0.686	0.601	0.675	0.55	0.473	0.472	0.457	0.479	0.485
NCI-H1915	0.979	0.986	0.997	0.877	0.898	0.827	0.684	0.791	0.79	0.783	0.369	0.316	0.357	0.396	0.292	0.546	0.599	0.514	0.543	0.389
NCI-H3122	0.996	1.03	1.03	0.969	0.974	0.0939	0.0878	0.106	0.123	0.098	0.78	0.752	0.856	0.891	0.763	0.155	0.204	0.176	0.233	0.209
NCI-H1651	0.98	0.969	0.869	0.93	0.897	0.845	0.936	0.753	0.861	0.593	0.43	0.421	0.388	0.472	0.411	0.528	0.518	0.525	0.533	0.531
NCI-H838	0.831	0.737	0.85	0.719	0.56	0.27	0.284	0.328	0.2	0.186	0.275	0.267	0.338	0.26	0.282	0.228	0.207	0.212	0.164	0.22
SK-LU-1	1.39	1.14	1.31	1.12	1.04	0.206	0.215	0.223	0.22	0.189	0.192	0.19	0.172	0.197	0.195	0.393	0.381	0.421	0.373	0.339
NCI-H441	0.603	0.811	0.478	0.457	0.554	0.32	0.354	0.328	0.286	0.302	0.655	0.836	0.64	0.658	0.362	0.294	0.223	0.217	0.22	0.259
NCI-H650	0.997	0.844	0.997	0.771	0.768	0.847	0.902	0.838	0.822	0.81	0.609	0.531	0.455	0.451	0.517	0.375	0.361	0.357	0.363	0.413
NCI-H1792	0.962	0.927	0.879	0.917	0.948	0.414	0.381	0.403	0.628	0.486	0.771	0.787	0.753	0.762	0.906	0.675	0.719	0.637	0.681	0.638
NCI-H1355	1.23	1.23	1.1	1.26	1.18	0.741	0.642	0.811	0.691	0.722	0.734	0.7	0.663	0.691	0.662	0.41	0.381	0.438	0.415	0.387
SW 1573	1.13	0.914	1.09	0.92	0.808	0.268	0.272	0.195	0.238	0.211	0.515	0.735	0.483	0.503	0.437	0.39	0.376	0.457	0.426	0.356
NCI-H2347	1.16	1.03	0.905	0.858	0.611	0.846	0.009	0.41	0.358	0.269	0.34	0.294	0.258	0.329	0.241	0.445	0.468	0.401	0.442	0.404
LCLC-97TM1	0.679	0.595	0.489	0.731	0.337	0.953	0.77	0.643	0.603	0.24	0.905	0.812	0.825	0.746	0.848	0.201	0.233	0.216	–	0.235
EMC-BAC-2	1.07	1.11	1.02	1.04	1.04	1.27	1.25	1.11	1.18	1.25	0.352	0.392	0.319	0.373	0.331	0.54	0.581	0.523	0.562	0.561
NCI-H1975	0.373	0.462	0.404	0.336	0.336	0.26	0.187	0.276	0.221	0.215	0.396	0.355	0.344	0.388	0.319	0.709	0.553	0.551	0.609	0.505
BEN	0.899	0.698	0.885	0.909	0.921	0.559	0.651	0.861	0.288	0.458	0.296	0.362	0.292	0.274	0.345	0.439	0.495	0.511	0.467	0.507
NCI-H23	1.14	1.1	1.04	0.916	0.642	0.201	0.185	0.182	0.239	0.226	0.867	0.86	0.917	0.683	0.85	0.46	0.423	0.522	0.532	0.402
